For orientation: IC50 means the midpoint of a concentration-inhibition curve. Broadly, the EC50 is the concentration giving half of the maximal effect.

Like-named read-outs stand apart in the source and are kept apart here.

The values that follow come from US10202379B2, “Substituted polycyclic carbamoyl pyridone derivative prodrug” (priority 2010, dated 2019).

The target of series [1] is Cap-dependant Endonuclease (CEN) (RNP fraction, PB1-PB2-PA complex) (Influenza A virus (strain A/Wilson-Smith/1933 H1N1) (Influenza A virus (strain A/WS/1933 H1N1)), UniProt P15659). It counts as biochemical, influenza A/WSN/33 virus.
A short description of series [2]: BA test (oral absorbability). Type of series: in vivo. Conditions: rat; for Parent compound BA(%): oral administration of parent compound; for plasma concentration of the prodrug itself: oral administration, non-fasting, all plasma samples. Here is the method:
Experimental Material and Method for Studying Oral Absorbability
(1) Animal to be used: A mouse or rat was used.
(2) Rearing conditions: Mouse and rat ingested a solid feed and sterilized tap water ad-libitum.
(3) Dose and setting of grouping: A predetermined dose was administered orally or intravenously. A group was set as follows. (a dose varied for every compound)
Oral administration 1 to 30 mg/kg (n=2 to 3)
Intravenous administration 0.5 to 10 mg/kg (n=2 to 3)
(4) Preparation of administration solution: For oral administration, a solution or suspension was administered. For intravenous administration, a compound which was solubilized was administered.
(5) Administration method: For oral administration, the administration solution was forcibly administered to the stomach by oral sonde. For intravenous administration, the administration solution was administered with a syringe equipped with an injection needle through a tail vein.
(6) Assessment item: Blood was collected with time, and a plasma drug concentration was measured using LC/MS/MS.
(7) Statistical analysis: Regarding plasma concentration transition, an area under a plasma concentration-time curve (AUC) was calculated using a non-linear minimum square method program WinNonlin (registered trademark), and bioavailability (BA) was calculated from AUC of an oral-administered group and an intervenous-administered group.

For a further series, the system named is influenza virus. Briefly: microbe, parasite or virus in culture. Type of series: cell-based. Conditions: MDBK or MDCK cells, 3 days, WST-8. Background: Tetrazolium assays rely on reduction of a dye to a coloured formazan, in cell work by metabolically active cells.
Setting [3] is: parent compounds (Reference examples), room temperature, 60 minutes.
Where [4] appears, read: unidentified influenza virus, 72 h, read-out: CPE EC50, parent compounds (Reference examples).

As to `C[C@@H](N1CN([C@@H]2c3ccccc3SCc3c(F)cccc32)n2ccc(=O)c(O)c2C1=O)C(F)(F)F` [Reference example 445], the IC50 in series [1] (setting [3]) turned out to be 13 nM. Also, the “Parent compound BA(%)” value in series [2] was 12.1%. Further, the EC50 in the series on influenza virus (setting [4]) was determined as 4 nM. For the compound `C[C@@H](N1CN(C2c3ccccc3CCc3cc(F)c(F)cc32)n2ccc(=O)c(O)c2C1=O)C(F)(F)F` (some centres unmarked) [Reference example 636], the half-inhibitory concentration (IC50) in series [1] (setting [3]) worked out at 74 nM. Also, the 50% effective concentration (EC50) in the series with influenza virus (setting [4]) is 15 nM.

Turning to `COc1cccc2c1[C@H](N1CN([C@H](C)C(F)(F)F)C(=O)c3c(O)c(=O)ccn31)c1ccccc1SC2` [compound 728], in series [1] (setting [3]), the IC50 was determined as 74.7 nM. The half-maximal effective concentration (EC50) in the series on influenza virus (setting [4]) was 4.32 nM. The corresponding values for `COC(=O)c1cn2c(c(O)c1=O)C(=O)N1CCCCN1C2C(c1ccccc1)c1ccccc1` (centres unmarked) [Reference example 506] are 247 nM and 1620 nM. Turning to `C[C@@H](N1CN([C@@H]2c3cccc(Cl)c3SCc3cccc(F)c32)n2ccc(=O)c(O)c2C1=O)C(F)(F)F` [Reference example 601], the concentration for half-maximal inhibition (IC50) in series [1] (setting [3]) was determined as 25 nM. The EC50 in the series with influenza virus (setting [4]) amounted to 8 nM.

`COCCCC1N(CC(F)(F)F)C(=O)c2c(O)c(=O)ccn2N1C1c2ccccc2CCc2ccccc21` (centres unmarked) [Reference example 642]: the half-inhibitory concentration (IC50) in series [1] turned out to be 256 nM. The EC50 in the series on influenza virus (setting [4]) stood at 94 nM. For `C[C@@H](N1CN([C@@H]2c3ccccc3CCc3c(Cl)cccc32)n2ccc(=O)c(O)c2C1=O)C(F)(F)F` [Reference example 641], the concentration for half-maximal inhibition (IC50) in series [1] (setting [3]) was 46 nM. In addition, the concentration giving a half-maximal response (EC50) in the series on influenza virus (setting [4]) turned out to be 23 nM. The corresponding values for `C[C@@H](N1CN([C@H]2c3ccccc3SCc3cccc(N(C)C)c32)n2ccc(=O)c(O)c2C1=O)C(F)(F)F` [compound 753] are 109 nM and 18.5 nM. The corresponding values for `C[C@@H](N1CN([C@@H]2c3cccc(F)c3SCc3cccc(F)c32)n2ccc(=O)c(O)c2C1=O)C(F)(F)F` [Reference example 599] are 25 nM and 8 nM. The corresponding values for `C[C@@H](N1CN([C@@H]2c3ccc(F)cc3SCc3cccc(Cl)c32)n2ccc(=O)c(O)c2C1=O)C(F)(F)F` [compound 772] are 5.22 nM and 3.68 nM. `CC(C)N1CN(C2c3ccccc3CSc3ccccc32)n2ccc(=O)c(O)c2C1=O` (centres unmarked) [Reference example 301]: the “Parent compound BA(%)” value in series [2] was 2.3%. Turning to `CC(O)c1cn2c(c(O)c1=O)C(=O)N([C@H](C)C(F)(F)F)CN2[C@@H]1c2ccccc2SCc2cccc(Cl)c21` (some centres unmarked) [compound 710], in series [1], the IC50 was determined as 20.6 nM. Also, the EC50 in the series on influenza virus (setting [4]) was determined as 9.81 nM. In the case of `C#Cc1cccc2c1[C@H](N1CN([C@H](C)C(F)(F)F)C(=O)c3c(O)c(=O)ccn31)c1cccc(F)c1SC2` [compound 726], the 50% inhibitory concentration (IC50) in series [1] (setting [3]) came to 3.74 nM. For the same compound, in the series with influenza virus (setting [4]), the EC50 was 3.93 nM.

In the case of `C[C@@H](N1CN(C(c2ccccc2Cl)c2ccccc2Cl)n2ccc(=O)c(O)c2C1=O)C(F)(F)F` [Reference example 648], in series [1] (setting [3]), the half-inhibitory concentration (IC50) is 132 nM. In addition, in the series on influenza virus (setting [4]), the EC50 came out at 59 nM.

Take `Cc1cccc2c1CSc1c(F)cccc1[C@H]2N1CN([C@H](C)C(F)(F)F)C(=O)c2c(O)c(=O)ccn21` [Reference example 617]: the IC50 in series [1] (setting [3]) was found to be 53 nM. Also, the half-maximal effective concentration (EC50) in the series with influenza virus (setting [4]) was 17 nM. The compound `C[C@@H](N1CN([C@H]2c3cccc(F)c3CSc3c(Cl)cccc32)n2ccc(=O)c(O)c2C1=O)C(F)(F)F` [Reference example 594] had an IC50 in series [1] of 11 nM. The “Parent compound BA(%)” value in series [2] was found to be 5.0%. For the same compound, in the series on influenza virus (setting [4]), the half-maximal effective concentration (EC50) turned out to be 4 nM. For the compound `O=C1c2c(O)c(=O)ccn2N(C2c3ccccc3CCc3ccccc32)CN1C1COC1` [Reference example 629], in series [1] (setting [3]), the concentration for half-maximal inhibition (IC50) stood at 89 nM. The concentration for a half-maximal effect (EC50) in the series on influenza virus (setting [4]) was 64 nM. `C[C@@H](N1CN([C@H]2c3cc(F)c(F)cc3CSc3ccccc32)n2ccc(=O)c(O)c2C1=O)C(F)(F)F` [compound 668] returned an IC50 in series [1] of 12.6 nM. Besides, in the series with influenza virus (setting [4]), the EC50 came out at 3.84 nM.

Regarding `C[C@@H](N1CN([C@@H]2c3ccccc3SCc3cccc(Cl)c32)n2cc(Cl)c(=O)c(O)c2C1=O)C(F)(F)F` [compound 762], in series [1] (setting [3]), the IC50 worked out at 31.5 nM. The EC50 with influenza virus (setting [4]) was determined as 5.9 nM. The corresponding values for `C[C@@H](N1CN([C@H]2c3ccc(F)cc3CSc3ccccc32)n2cc(B(O)O)c(=O)c(O)c2C1=O)C(F)(F)F` [compound 708] are 46.5 nM and 8.49 nM.

On to `C[C@@H](N1CN([C@H]2c3cc(F)ccc3CSc3c(F)cccc32)n2ccc(=O)c(O)c2C1=O)C(F)(F)F` [Reference example 656], for which the concentration for half-maximal inhibition (IC50) in series [1] (setting [3]) amounted to 70 nM. For the same compound, the 50% effective concentration (EC50) with influenza virus (setting [4]) was found to be 19 nM. The corresponding values for `COCCCC1N(CC(F)(F)F)C(=O)c2c(O)c(=O)ccn2N1C1c2ccc(F)cc2CCc2cc(F)ccc21` (centres unmarked) [Reference example 643] are 163 nM and 132 nM.

Take `C[C@@H](N1CN([C@H]2c3cccc(F)c3SCc3cccc(Cl)c32)n2ccc(=O)c(O)c2C1=O)C(F)(F)F` [Reference example 622]: half-maximal inhibition in series [1] (IC50) was put at 89 nM. Moreover, the concentration giving a half-maximal response (EC50) in the series with influenza virus (setting [4]) was determined as 12 nM. On to `C[C@@H](N1CN([C@H](c2ccccc2)c2ccccc2Cl)n2ccc(=O)c(O)c2C1=O)C(F)(F)F` [Reference example 652], for which the IC50 in series [1] (setting [3]) amounted to 330 nM. Moreover, the EC50 in the series on influenza virus (setting [4]) is 79 nM. The corresponding values for `C[C@@H](N1CN(C2c3ccc(F)cc3CCc3cc(F)ccc32)n2ccc(=O)c(O)c2C1=O)C(F)(F)F` [Reference example 640] are 57 nM and 6 nM. For `CC(=O)c1cn2c(c(O)c1=O)C(=O)N([C@H](C)C(F)(F)F)CN2[C@@H]1c2ccccc2SCc2c1ccc(F)c2F` [compound 706], in that order: 18.6 nM and 7.19 nM. With `C[C@@H](N1CN([C@H]2c3ccccc3CCc3c(F)cccc32)n2ccc(=O)c(O)c2C1=O)C(F)(F)F` [Reference example 628], in series [1] (setting [3]), the IC50 is 43 nM. Also, the EC50 in the series with influenza virus (setting [4]) is 13 nM.

Take `C[C@@H](N1CN([C@@H]2c3cccc(F)c3SCc3cccc(Cl)c32)n2ccc(=O)c(O)c2C1=O)C(F)(F)F` [Reference example 621]: the IC50 in series [1] was determined as 6 nM. Moreover, in the series on influenza virus (setting [4]), the EC50 was found to be 2 nM. With `C[C@@H](N1CN([C@H]2c3ccccc3CSc3cccc(F)c32)n2ccc(=O)c(O)c2C1=O)C(F)(F)F` [Reference example 603], the IC50 in series [1] (setting [3]) was 37 nM. Moreover, the EC50 in the series on influenza virus (setting [4]) came out at 15 nM.

Turning to `C[C@@H](N1CN([C@H]2c3ccccc3SCc3cccc(Br)c32)n2ccc(=O)c(O)c2C1=O)C(F)(F)F` [Reference example 661], the IC50 in series [1] (setting [3]) amounted to 135 nM. In the series with influenza virus (setting [4]), the 50% effective concentration (EC50) stood at 14 nM. For `O=C1c2c(O)c(=O)ccn2N([C@@H]2c3ccccc3SCc3cccc(Cl)c32)[C@H]2COCCN12` [compound 682], in series [1] (setting [3]), the IC50 was 19.7 nM. Moreover, the 50% effective concentration (EC50) with influenza virus (setting [4]) was found to be 3.5 nM. For `C[C@@H](N1CN([C@@H]2c3ccccc3SCc3cccc(Cl)c32)n2ccc(=O)c(O)c2C1=O)C(F)(F)F` [Reference example 429], the “Parent compound BA(%)” value in series [2] was 13.3%. Besides, in the series with influenza virus (setting [4]), the concentration for a half-maximal effect (EC50) was 4 nM. Compound `C[C@@H](N1CN([C@@H]2c3ccccc3SCc3c2ccc(F)c3F)n2cc(Cl)c(=O)c(O)c2C1=O)C(F)(F)F` [compound 716] had an IC50 in series [1] of 5.54 nM. Also, in the series with influenza virus (setting [4]), the EC50 was found to be 5.6 nM. Take `CC(=O)Oc1c2n(ccc1=O)N(C1c3ccccc3CSc3ccccc31)CN(C(C)C)C2=O` (centres unmarked) [Example 204]: in series [2], the “plasma concentration of the prodrug itself” value is on record as “a determination limit or less”. For `C[C@@H](CO)N1CN(C2c3ccccc3CSc3ccccc32)n2ccc(=O)c(O)c2C1=O` (some centres unmarked) [Reference example 375], in series [1] (setting [3]), the half-inhibitory concentration (IC50) is 37 nM. In addition, in the series on influenza virus (setting [4]), the half-maximal effective concentration (EC50) is 73 nM. For `C[C@@H](N1CN(C2c3ccccc3CCc3cccc(Cl)c32)n2ccc(=O)c(O)c2C1=O)C(F)(F)F` (some centres unmarked) [compound 686], in that order: 15.1 nM and 7.86 nM. The corresponding values for `N#CCN1CN(C(c2ccccc2)c2ccccc2)n2ccc(=O)c(O)c2C1=O` [Reference example 574] are 165 nM and 442 nM. For `C[C@@H](N1CN([C@H]2c3ccccc3CCc3cccc(F)c32)n2ccc(=O)c(O)c2C1=O)C(F)(F)F` [Reference example 633], in that order: 53 nM and 22 nM.

Compound `COCCC(=O)Oc1c2n(ccc1=O)N([C@@H]1c3ccccc3SCc3c(Cl)cccc31)CN([C@H](C)C(F)(F)F)C2=O` [Example 108] registered an IC50 in series [1] of 37 nM. Further, in the series with influenza virus (parent compounds (Reference examples), read-out: CPE EC50), the EC50 turned out to be 19 nM.

Consider `C[C@@H](N1CN([C@@H](c2ccccc2)c2ccccc2Cl)n2ccc(=O)c(O)c2C1=O)C(F)(F)F` [Reference example 651], for which the half-inhibitory concentration (IC50) in series [1] (setting [3]) came out at 56 nM. In the series on influenza virus (setting [4]), the half-maximal effective concentration (EC50) came out at 13 nM. For the compound `CC(=O)OCOc1c2n(ccc1=O)N(C1c3ccccc3CSc3ccccc31)CN(C(C)C)C2=O` (centres unmarked) [Example 114], the “plasma concentration of the prodrug itself” value in series [2] was “a determination limit or less”.

Take `C[C@@H](N1CN([C@@H]2c3ccccc3SCc3cccc(Br)c32)n2ccc(=O)c(O)c2C1=O)C(F)(F)F` [Reference example 654]: the IC50 in series [1] (setting [3]) came to 8 nM. In addition, in the series on influenza virus (setting [4]), the EC50 was found to be 1 nM.
